Experiments:
[1] = oral administration; cited from earlier work
[2] = Metabolism of the compounds to the active component (compound [formula (II)]) in liver cells; conditions: human liver cells S9, 1 mM NADPH, 37° C., 2 hours; metabolized to the compound [formula (II)]
Excerpt: After the precipitated proteins were removed by centrifugation, the obtained supernatant solution was adjusted to pH of 3 with concentrated potassium phosphate solution, and centrifuged again. The obtained supernatant was directly injected into HPLC for analysis.

[3] = Dissolution of the oral conventional tablets; type: physicochemical
Experimental: Tablets were obtained by direct tabletting, and each tablet contained 6 mg of active ingredient (expressed in the compound [formula (II)]).

[4] = Dissolution of oral sustained-release capsules; type: physicochemical
Experimental: Granules were obtained by using conventional fluidized bed.
After the coating was dried, the coated granules were filled into hard gelatin capsules, each capsule contain 6 mg of the active ingredient (expressed in the compound [formula (II)]), and the coating degree was 6%. The capsules were subjected to dissolution tests according the method specified in the Pharmacopoeia of the People's Republic of China.

[5] = Absolute bioavailability, beagle tests of the compound [formula (II)] and its prodrugs; type: in vivo; conditions: iv, dosage equimolar to the prodrug, compound [formula (II)] in blood
Experimental: Measurement of the Absolute Bioavailability—Beagle Tests of the Compound [Formula (II)] and its Prodrugs, the Compounds 1, 2, 3, 5, 6, 7 and 8
Twenty one beagles weighing about 10 kg were divided into 7 groups, and intragastrically administered the compounds 1, 2, 3, 5, 6, 7 and 8 at a dosage of 9.4 μmol/beagle, respectively. Blood samples were taken at the predetermined time points, and the concentrations of the active metabolite (the compound [formula (II)]) and prodrugs in blood were measured. In the meantime, three beagles weighing about 10 kg were intravenously administered with the compound [formula (II)] at a dosage equimolar to the prodrug, as the control group, and the concentrations of the compound [formula (II)] in blood were measured.
The prodrugs were immediately metabolized almost completely to form the active metabolite in beagle body, the compound [formula (II)] upon being administrated parenterally, and the concentrations of the original compounds were very low (see: FIG. 1C).

Metabolic rate (%) [2]	Dissolution percentage of the active ingredient ([3]; dissolution time 2 hours)	Dissolution percentage of the active ingredient ([3]; dissolution time 4 hours)	Dissolution percentage of the active ingredient ([3]; dissolution time 8 hours)	Dissolution percentage of the active ingredient ([4]; dissolution time 2 hours)	Dissolution percentage of the active ingredient ([4]; dissolution time 4 hours)	Dissolution percentage of the active ingredient ([4]; dissolution time 8 hours)	Dissolution percentage of the active ingredient ([4]; dissolution time 12 hours)	Dissolution percentage of the active ingredient ([4]; dissolution time 24 hours)	Structure (SMILES)	other results
–	–	–	–	–	–	–	–	–	Cc1nc2n(c(=O)c1CCN1CCC(c3noc4cc(F)ccc34)CC1)CCCC2 [Risperidone]	absolute bioavailability [1]: at least 70%
78%	–	–	–	–	–	–	–	–	Cc1ccc(C(=O)OC2CCCn3c2nc(C)c(CCN2CCC(c4noc5cc(F)ccc45)CC2)c3=O)cc1 (stereo not drawn) [Compound 2, 3-{2-[4-(6-fluoro-1,2-benzoisoxazol-3-yl)-1-piperidinyl]ethyl}-2-methyl-4-oxo-6,7,8,9-tetrahydro-pyrido[1,2-α]pyrimidin-9-yl 4-methylbenzoate]	–
89%	35%	67%	92%	8.9%	26%	60%	76%	94%	Cc1nc2n(c(=O)c1CCN1CCC(c3noc4cc(F)ccc34)CC1)CCCC2OC(=O)c1ccccc1 (stereo not drawn) [Compound 1, 3-{2-[4-(6-fluoro-1,2-benzoisoxazol-3-yl)-1-piperidinyl]-ethyl}-2-methyl-4-oxo-6,7,8,9-tetrahydro-pyrido[1,2-α]pyrimidin-9-yl benzoate]	–
94%	–	–	–	–	–	–	–	–	Cc1nc2n(c(=O)c1CCN1CCC(c3noc4cc(F)ccc34)CC1)CCCC2OC(=O)Oc1ccccc1.Cl (stereo not drawn) [Compound 8, 3-{2-[4-(6-fluoro-1,2-benzoisoxazol-3-yl)-1-piperidinyl]ethyl}-2-methyl-4-oxo-6,7,8,9-tetrahydro-pyrido[1,2-α]pyrimidin-9-yl phenyl carbonate hydrochloride]	–
93%	45%	76%	93%	5.3%	22%	41%	59%	82%	CCCCCOC(=O)OC1CCCn2c1nc(C)c(CCN1CCC(c3noc4cc(F)ccc34)CC1)c2=O.Cl.Cl (stereo not drawn) [Compound 7, 3-{2-[4-(6-fluoro-1,2-benzoisoxazol-3-yl)-1-piperidinyl]ethyl}-2-methyl-4-oxo-6,7,8,9-tetrahydro-pyrido[1,2-α]pyrimidin-9-yl n-pentyl carbonate dihydrochloride]	–
–	–	–	–	–	–	–	–	–	Cc1nc2n(c(=O)c1CCN1CCC(c3noc4cc(F)ccc34)CC1)CCCC2O (stereo not drawn) [9-hydroxy risperidone, 3-{2-[4-(6-fluoro-benzo[d]isoxazol-3-yl)piperidin-1-yl]-ethyl}-9-hydroxy-2-methyl-6,7,8,9-tetrahydro-pyrido[1,2-α]pyrimidin-4-one]	Cmax ([5]; beagle, dog, 9.4 μmol/beagle): 360 ng/mL; half-life ([5]; beagle, dog, 9.4 μmol/beagle): 2.51 h; AUC [5]: 2422 nghr/ml; absolute bioavailability [1]: 28%
92%	43%	79%	98%	8.8%	19%	42%	68%	89%	Cc1nc2n(c(=O)c1CCN1CCC(c3noc4cc(F)ccc34)CC1)CCCC2OC(=O)OCC(C)C.Cl.Cl (stereo not drawn) [Compound 6, 3-{2-[4-(6-fluoro-1,2-benzoisoxazol-3-yl)-1-piperidinyl]ethyl}-2-methyl-4-oxo-6,7,8,9-tetrahydro-pyrido[1,2-α]pyrimidin-9-yl isobutyl carbonate dihydrochloride]	–
89%	–	–	–	–	–	–	–	–	Cc1nc2n(c(=O)c1CCN1CCC(c3noc4cc(F)ccc34)CC1)CCCC2OC(=O)Oc1ccc([N+](=O)[O-])cc1.Cl (stereo not drawn) [Compound 9, 3-{2-[4-(6-fluoro-1,2-benzoisoxazol-3-yl)-1-piperidinyl]ethyl}-2-methyl-4-oxo-6,7,8,9-tetrahydro-pyrido[1,2-α]pyrimidin-9-yl p-nitrophenyl carbonate hydrochloride]	–
95%	–	–	–	–	–	–	–	–	CCOC(=O)OC1CCCn2c1nc(C)c(CCN1CCC(c3noc4cc(F)ccc34)CC1)c2=O.Cl (stereo not drawn) [Compound 5, 3-{2-[4-(6-fluoro-1,2-benzoisoxazol-3-yl)-1-piperidinyl]ethyl}-2-methyl-4-oxo-6,7,8,9-tetrahydro-pyrido[1,2-α]pyrimidin-9-yl ethyl carbonate hydrochloride]	–
